Reference: patent US9139557B2, “Carboxamide compounds and their use as calpain inhibitors” (Abbott GmbH & Co. KG, priority 2006, dated 2015)

Key:
Format in all cases: biochemical
[1] = molecular target: T1, cathepsin B (Homo sapiens, UniProt P07858); assay: Cathepsin B enzyme inhibition in vitro (kinetic fluorescence assay); settings: Ki(cathepsin B)/Ki(calpain) ratio
T1 construct: cathepsin B—isolated from human liver; purchased Calbiochem 219362; host or cells: human liver (tissue isolate)
Description: (§1) Testing for blockade of the corresponding enzymic activities was carried out by means of kinetic fluorescence assays (excitation 390 nm, emission 460 nm).
(§2) Apparent Ki values were calculated from the experimentally determined IC50 values by the Cheng-Prussoff relation assuming a reversible competitive enzyme inhibition. The Km values of the substrates used under the assay conditions indicated above were: 90 μM (Z-Phe-Arg-AMC, cathepsin B), 10 μM (Z-Gly-Pro-Arg-AMC, cathepsin K), 2 μM (Z-Phe-Arg-AMC, cathepsin L), and 30 μM (Z-Val-Val-Arg-AMC, cathepsin S).
(§3) The indicated Ki values are averages of the inhibition constants calculated on the basis of 2 to 4 independent dose-effect plots.
(§4) • 1. Calpain I: • 20 nM calpain-I—isolated from human erythrocytes (Calbiochem #208713), 100 μM Suc-Leu-Tyr-AMC (Bachem #1-1355) as substrate in buffer with 62 mM imidazole, 0.3 mM CaCl2, 0.10% CHAPS, 0.05% BSA, 1 mM DTT at pH 7.3 and room temperature. • 2. Cathepsin B: • 0.25 nM cathepsin B—isolated from human liver (Calbiochem #219362), 100 μM Z-Phe-Arg-AMC (Bachem #1-1160) as substrate 50 mM MES, 2 mM EDTA, 0.05% Brij 35, 2.5 mM L-cysteine, pH 6.0, room temperature. • 3. Cathepsin K: • 3 nM cathepsin K—activated from recombinant human procathepsin K from E. coli (Calbiochem #342001), 10 μM Z-Gly-Pro-Arg-AMC (Biomol #P-142) as substrate in 50 mM MES, 2 mM EDTA, 0.05% Brij 35, 2.5 mM L-cysteine, pH 6.0, room temperature. • 4. Cathepsin L: • 1 nM cathepsin L—isolated from human liver (Calbiochem #219402), 2 μM Z-Phe-Arg-AMC (Bachem #1-1160) as substrate in 50 mM MES, 2 mM EDTA, 0.05% Brij 35, 2.5 mM L-cysteine, pH 6.0, room temperature. • 5. Cathepsin S: • 0.5 nM recombinant human cathepsin S from E. coli (Calbiochem #219343), 20 μM Z-Val-Val-Arg-AMC (Bachem #1-1540) as substrate in 50 mM MES, 2 mM EDTA, 0.05% Brij 35, 2.5 mM L-cysteine, pH 6.0, room temperature.

[2] = molecular target: T2, cathepsin K (Homo sapiens, UniProt P43235); assay: Cathepsin K enzyme inhibition in vitro (kinetic fluorescence assay); settings: Ki(cathepsin K)/Ki(calpain) ratio
T2 construct: purchased Calbiochem 342001; host or cells: E. coli
T2 sequence (P43235 115-329): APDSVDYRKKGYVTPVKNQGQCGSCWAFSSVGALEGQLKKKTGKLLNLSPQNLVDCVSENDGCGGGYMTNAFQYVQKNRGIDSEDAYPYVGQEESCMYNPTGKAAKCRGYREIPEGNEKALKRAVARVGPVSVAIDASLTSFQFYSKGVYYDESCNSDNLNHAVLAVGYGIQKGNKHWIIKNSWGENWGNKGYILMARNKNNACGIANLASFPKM
Description: as §1, §2, §3, §4

[3] = molecular target: T3, cathepsin L (Homo sapiens, UniProt P07711); assay: Cathepsin L enzyme inhibition in vitro (kinetic fluorescence assay); settings: Ki(cathepsin L)/Ki(calpain) ratio
T3 construct: cathepsin L—isolated from human liver; purchased Calbiochem 219402; host or cells: human liver (tissue isolate)
T3 sequence (P07711 114-333): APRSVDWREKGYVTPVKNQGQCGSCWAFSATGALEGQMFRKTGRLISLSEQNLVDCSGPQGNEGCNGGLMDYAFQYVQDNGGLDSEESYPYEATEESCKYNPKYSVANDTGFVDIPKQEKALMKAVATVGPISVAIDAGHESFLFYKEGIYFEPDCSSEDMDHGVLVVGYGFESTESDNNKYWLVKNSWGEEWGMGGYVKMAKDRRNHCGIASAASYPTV
Description: as §1, §2, §3, §4

[4] = molecular target: T4, cathepsin S (Homo sapiens, UniProt P25774); assay: Cathepsin S enzyme inhibition in vitro (kinetic fluorescence assay); settings: Ki(cathepsin S)/Ki(calpain) ratio
T4 construct: purchased Calbiochem 219343; host or cells: E. coli
T4 sequence (P25774 115-331): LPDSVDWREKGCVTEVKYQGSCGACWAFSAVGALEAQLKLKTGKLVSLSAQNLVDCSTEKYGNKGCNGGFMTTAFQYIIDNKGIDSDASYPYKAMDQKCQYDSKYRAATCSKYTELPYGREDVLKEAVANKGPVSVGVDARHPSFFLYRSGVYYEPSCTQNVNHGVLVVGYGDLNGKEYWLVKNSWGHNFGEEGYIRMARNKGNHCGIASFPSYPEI
Method in brief: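 Kinetic fluorescence (ex 390/em 460 nm), RT. Calpain-I: 20 nM erythrocyte-derived, 100 μM Suc-Leu-Tyr-AMC, imidazole/CaCl2, pH 7.3. Cathepsins, pH 6.0 MES/EDTA/cysteine: B 0.25 nM liver, 100 μM Z-Phe-Arg-AMC; L 1 nM liver, 2 μM Z-Phe-Arg-AMC; S 0.5 nM recombinant, 20 μM Z-Val-Val-Arg-AMC. Cheng-Prusoff Ki, mean of 2–4 curves.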

NC(=O)C(=O)C(Cc1ccccc1)NC(=O)c1cccnc1-n1ccc(-c2ccccc2)n1 (stereo not shown) [Example 5, N-(3-Amino-1-benzyl-2,3-dioxopropyl)-2-(3-phenyl-1H-pyrazol-1-yl)nicotinamide]
Sel cat. B [1]: + (+ means 10≦Ki(cathepsin B)/Ki(calpain)<30) | Sel cat. K [2]: + (+ means 10≦Ki(cathepsin K)/Ki(calpain)<30) | Sel cat. L [3]: ++ (++ means a Ki(cathepsin L)/Ki(calpain) ratio of ≧50) | Sel cat. S [4]: ++ (++ means a Ki(cathepsin S)/Ki(calpain) ratio of ≧100)

NC(=O)C(=O)C(Cc1ccccc1)NC(=O)c1cc(Cl)cnc1-n1ccc(-c2ccccc2)n1 (stereo not shown) [Example 27, N-(3-Amino-1-benzyl-2,3-dioxopropyl)-5-chloro-2-(3-phenyl-1H-pyrazol-1-yl)nicotin-amide]
Sel cat. B [1]: ++ (++ means a Ki(cathepsin B)/Ki(calpain) ratio of ≧30) | Sel cat. K [2]: + (+ means 10≦Ki(cathepsin K)/Ki(calpain)<30) | Sel cat. L [3]: + (+ means 30≦Ki(cathepsin L)/Ki(calpain)<50)

NC(=O)C(=O)C(Cc1ccccc1)NC(=O)c1cc(Cl)cnc1-n1ccc(-c2ccc(N3CCOCC3)cc2)n1 (stereo not shown) [Example 31, N-(3-Amino-1-benzyl-2,3-dioxopropyl)-5-chloro-2-[3-(4-morpholin-4-ylphenyl)-1H-pyrazol-1-yl]nicotinamide]
Sel cat. B [1]: ++ (++ means a Ki(cathepsin B)/Ki(calpain) ratio of ≧30) | Sel cat. K [2]: + (+ means 10≦Ki(cathepsin K)/Ki(calpain)<30) | Sel cat. L [3]: + (+ means 30≦Ki(cathepsin L)/Ki(calpain)<50)

NC(=O)C(=O)C(Cc1ccccc1)NC(=O)c1cccnc1-n1ccc(-c2ccccn2)n1 (stereo not shown) [Example 35, N-(3-Amino-1-benzyl-2,3-dioxopropyl)-2-(3-pyridin-2-yl-1H-pyrazol-1-yl)nicotinamide]
Sel cat. B [1]: + (+ means 10≦Ki(cathepsin B)/Ki(calpain)<30) | Sel cat. K [2]: + (+ means 10≦Ki(cathepsin K)/Ki(calpain)<30) | Sel cat. L [3]: ++ (++ means a Ki(cathepsin L)/Ki(calpain) ratio of ≧50) | Sel cat. S [4]: ++ (++ means a Ki(cathepsin S)/Ki(calpain) ratio of ≧100)

NC(=O)C(=O)C(Cc1ccccc1)NC(=O)c1cccnc1-n1ccc(-c2ccc(F)cc2)n1 (stereo not shown) [Example 38, N-(3-Amino-1-benzyl-2,3-dioxopropyl)-2-[3-(4-fluorophenyl)-1H-pyrazol-1-yl]nicotinamide]
Sel cat. B [1]: + (+ means 10≦Ki(cathepsin B)/Ki(calpain)<30) | Sel cat. K [2]: + (+ means 10≦Ki(cathepsin K)/Ki(calpain)<30) | Sel cat. L [3]: ++ (++ means a Ki(cathepsin L)/Ki(calpain) ratio of ≧50) | Sel cat. S [4]: ++ (++ means a Ki(cathepsin S)/Ki(calpain) ratio of ≧100)

COc1ccc(-c2ccn(-c3ncccc3C(=O)NC(Cc3ccccc3)C(=O)C(N)=O)n2)cc1 (stereo not shown) [Example 48, N-(3-Amino-1-benzyl-2,3-dioxopropyl)-2-[3-(4-methoxyphenyl)-1H-pyrazol-1-yl]nicotinamide]
Sel cat. B [1]: + (+ means 10≦Ki(cathepsin B)/Ki(calpain)<30) | Sel cat. K [2]: + (+ means 10≦Ki(cathepsin K)/Ki(calpain)<30) | Sel cat. L [3]: ++ (++ means a Ki(cathepsin L)/Ki(calpain) ratio of ≧50) | Sel cat. S [4]: ++ (++ means a Ki(cathepsin S)/Ki(calpain) ratio of ≧100)

NC(=O)C(=O)C(Cc1ccc(Cl)cc1)NC(=O)c1cccnc1-n1ccc(-c2ccccc2)n1 (stereo not shown) [Example 50, N-[3-Amino-1-(4-chlorobenzyl)-2,3-dioxopropyl]-2-(3-phenyl-1H-pyrazol-1-yl)nicotinamide]
Sel cat. B [1]: + (+ means 10≦Ki(cathepsin B)/Ki(calpain)<30) | Sel cat. K [2]: + (+ means 10≦Ki(cathepsin K)/Ki(calpain)<30) | Sel cat. L [3]: + (+ means 30≦Ki(cathepsin L)/Ki(calpain)<50) | Sel cat. S [4]: + (+ means 50≦Ki(cathepsin S)/Ki(calpain)<100)

NC(=O)C(=O)C(Cc1ccccc1)NC(=O)c1cccnc1-n1ccc(-c2ccccc2Cl)n1 (stereo not shown) [Example 54, N-(3-Amino-1-benzyl-2,3-dioxopropyl)-2-[3-(2-chlorophenyl)-1H-pyrazol-1-yl]nicotinamide]
Sel cat. B [1]: ++ (++ means a Ki(cathepsin B)/Ki(calpain) ratio of ≧30) | Sel cat. K [2]: ++ (++ means a Ki(cathepsin K)/Ki(calpain) ratio of ≧30) | Sel cat. L [3]: ++ (++ means a Ki(cathepsin L)/Ki(calpain) ratio of ≧50) | Sel cat. S [4]: ++ (++ means a Ki(cathepsin S)/Ki(calpain) ratio of ≧100)

NC(=O)C(=O)C(Cc1ccccc1)NC(=O)c1cccnc1-n1ccc(-c2cccs2)n1 (stereo not shown) [Example 55, N-(3-Amino-1-benzyl-2,3-dioxopropyl)-2-[3-(2-thienyl)-1H-pyrazol-1-yl]nicotinamide]
Sel cat. B [1]: + (+ means 10≦Ki(cathepsin B)/Ki(calpain)<30) | Sel cat. K [2]: + (+ means 10≦Ki(cathepsin K)/Ki(calpain)<30) | Sel cat. L [3]: ++ (++ means a Ki(cathepsin L)/Ki(calpain) ratio of ≧50) | Sel cat. S [4]: ++ (++ means a Ki(cathepsin S)/Ki(calpain) ratio of ≧100)

NC(=O)C(=O)C(Cc1ccccc1)NC(=O)c1cccnc1-n1ccc(-c2cccc(N3CCCC3)c2)n1 (stereo not shown) [Example 74, N-(3-Amino-1-benzyl-2,3-dioxopropyl)-2-[3-(3-pyrrolidin-1-ylphenyl)-1H-pyrazol-1-yl]nicotinamide]
Sel cat. B [1]: ++ (++ means a Ki(cathepsin B)/Ki(calpain) ratio of ≧30) | Sel cat. K [2]: ++ (++ means a Ki(cathepsin K)/Ki(calpain) ratio of ≧30) | Sel cat. S [4]: ++ (++ means a Ki(cathepsin S)/Ki(calpain) ratio of ≧100)

NC(=O)C(=O)C(Cc1ccccc1)NC(=O)c1cccnc1-n1ccc(-c2ccc3c(c2)CCO3)n1 (stereo not shown) [Example 75, N-(3-Amino-1-benzyl-2,3-dioxopropyl)-2-[3-(2,3-dihydrobenzo[b]furan-5-yl)-1H-pyrazol-1-yl]nicotinamide]
Sel cat. K [2]: + (+ means 10≦Ki(cathepsin K)/Ki(calpain)<30) | Sel cat. L [3]: ++ (++ means a Ki(cathepsin L)/Ki(calpain) ratio of ≧50) | Sel cat. S [4]: ++ (++ means a Ki(cathepsin S)/Ki(calpain) ratio of ≧100)

N#Cc1cnc(-n2ccc(-c3ccccc3)n2)c(C(=O)NC(Cc2ccccc2)C(=O)C(N)=O)c1 (stereo not shown) [Example 82, N-(3-Amino-1-benzyl-2,3-dioxopropyl)-5-cyano-2-(3-phenyl-1H-pyrazol-1-yl)nicotinamide]
Sel cat. B [1]: ++ (++ means a Ki(cathepsin B)/Ki(calpain) ratio of ≧30) | Sel cat. K [2]: ++ (++ means a Ki(cathepsin K)/Ki(calpain) ratio of ≧30) | Sel cat. L [3]: ++ (++ means a Ki(cathepsin L)/Ki(calpain) ratio of ≧50)

COc1ccc(OC)c(-c2ccn(-c3ncccc3C(=O)NC(Cc3ccccc3)C(=O)C(N)=O)n2)c1 (stereo not shown) [Example 151, N-[3-Amino-2,3-dioxo-1-(phenylmethyl)propyl]-2-{3-[2,5-bis(methyloxy)phenyl]-1H-pyrazol-1-yl}pyridine-3-carboxamide]
Sel cat. B [1]: ++ (++ means a Ki(cathepsin B)/Ki(calpain) ratio of ≧30) | Sel cat. K [2]: ++ (++ means a Ki(cathepsin K)/Ki(calpain) ratio of ≧30) | Sel cat. L [3]: ++ (++ means a Ki(cathepsin L)/Ki(calpain) ratio of ≧50)

NC(=O)C(=O)C(Cc1ccccc1)NC(=O)c1cccnc1-n1ccc(C2CCCCC2)n1 (stereo not shown) [Example 192, N-[3-Amino-2,3-dioxo-1-(phenylmethyl)propyl]-2-(3-cyclohexyl-1H-pyrazol-1-yl)pyridine-3-carboxamide]
Sel cat. K [2]: + (+ means 10≦Ki(cathepsin K)/Ki(calpain)<30) | Sel cat. L [3]: ++ (++ means a Ki(cathepsin L)/Ki(calpain) ratio of ≧50) | Sel cat. S [4]: ++ (++ means a Ki(cathepsin S)/Ki(calpain) ratio of ≧100)
